Results published in patent US9206184B2, “Disubstituted benzothienyl-pyrrolotriazines and uses thereof” (BAYER INTELLECTUAL PROPERTY GmbH, priority 2011, dated 2015).
Structures can show the parent of a compound that is named as a salt.

Columns and labels:
Type in all cases: biochemical
human FGFR-1 = human FGFR-1 (Homo sapiens, UniProt P11362); assay: FGFR-1 high ATP kinase assay (TR-FRET); conditions: 2 mM ATP; 15 min pre-incubation with enzyme; compounds of the invention
human FGFR-3 = human FGFR-3 (Homo sapiens (Human), UniProt P22607); assay: FGFR-3 kinase assay (TR-FRET); conditions: 10 μM ATP; 15 min pre-incubation with enzyme; compounds of the invention
Sequence of human FGFR-3 (P22607 397-806): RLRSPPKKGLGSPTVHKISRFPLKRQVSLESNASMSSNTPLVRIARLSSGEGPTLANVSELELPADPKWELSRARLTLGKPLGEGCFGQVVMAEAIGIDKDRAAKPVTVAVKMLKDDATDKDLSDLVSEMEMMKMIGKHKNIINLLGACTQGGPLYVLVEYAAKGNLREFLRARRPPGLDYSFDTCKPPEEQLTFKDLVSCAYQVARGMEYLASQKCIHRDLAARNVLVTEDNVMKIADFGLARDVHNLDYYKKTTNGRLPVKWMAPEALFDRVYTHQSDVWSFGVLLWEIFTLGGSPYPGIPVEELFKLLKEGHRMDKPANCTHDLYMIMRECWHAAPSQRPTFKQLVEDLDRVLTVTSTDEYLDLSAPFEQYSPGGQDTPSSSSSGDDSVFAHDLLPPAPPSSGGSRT

human mTOR = human mTOR (Homo sapiens (Human), UniProt P42345); assay: mTOR kinase assay (TR-FRET, for comparative purposes); conditions: mean inhibition at 1 μM test compound; 40 μM ATP
Sequence of human mTOR (P42345 1360-2549): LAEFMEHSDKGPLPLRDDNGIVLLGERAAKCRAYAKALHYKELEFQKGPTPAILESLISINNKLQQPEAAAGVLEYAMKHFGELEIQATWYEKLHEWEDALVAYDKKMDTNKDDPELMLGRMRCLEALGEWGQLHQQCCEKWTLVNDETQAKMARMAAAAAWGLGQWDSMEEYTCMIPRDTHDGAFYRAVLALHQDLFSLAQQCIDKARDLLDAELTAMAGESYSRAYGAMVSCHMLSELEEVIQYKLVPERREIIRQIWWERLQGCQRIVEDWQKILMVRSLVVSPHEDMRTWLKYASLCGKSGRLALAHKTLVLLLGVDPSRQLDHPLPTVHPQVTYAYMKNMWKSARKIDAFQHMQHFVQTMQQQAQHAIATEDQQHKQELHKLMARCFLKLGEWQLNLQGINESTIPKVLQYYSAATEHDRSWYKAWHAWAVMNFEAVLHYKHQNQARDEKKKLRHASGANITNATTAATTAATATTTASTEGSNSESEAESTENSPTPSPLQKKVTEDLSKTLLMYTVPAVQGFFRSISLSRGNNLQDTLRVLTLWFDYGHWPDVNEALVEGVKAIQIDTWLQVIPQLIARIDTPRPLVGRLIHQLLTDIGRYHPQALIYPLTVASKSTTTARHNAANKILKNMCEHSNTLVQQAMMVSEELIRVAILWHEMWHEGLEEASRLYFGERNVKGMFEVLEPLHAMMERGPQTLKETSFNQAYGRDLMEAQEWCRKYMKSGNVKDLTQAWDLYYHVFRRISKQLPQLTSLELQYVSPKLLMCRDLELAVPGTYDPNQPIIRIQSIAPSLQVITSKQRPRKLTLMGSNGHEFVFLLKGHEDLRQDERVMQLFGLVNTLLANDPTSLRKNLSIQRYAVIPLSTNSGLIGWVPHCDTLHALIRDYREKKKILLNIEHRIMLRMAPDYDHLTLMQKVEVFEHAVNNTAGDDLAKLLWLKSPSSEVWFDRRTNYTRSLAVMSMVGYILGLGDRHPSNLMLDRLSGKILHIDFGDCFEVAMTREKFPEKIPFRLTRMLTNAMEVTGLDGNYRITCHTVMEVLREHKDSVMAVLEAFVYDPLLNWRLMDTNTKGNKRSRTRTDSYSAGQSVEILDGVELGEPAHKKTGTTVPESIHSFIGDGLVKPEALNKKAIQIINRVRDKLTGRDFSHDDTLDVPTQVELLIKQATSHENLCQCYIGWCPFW

Sequence of human FGFR-1 (P11362 22-822 limits assumed): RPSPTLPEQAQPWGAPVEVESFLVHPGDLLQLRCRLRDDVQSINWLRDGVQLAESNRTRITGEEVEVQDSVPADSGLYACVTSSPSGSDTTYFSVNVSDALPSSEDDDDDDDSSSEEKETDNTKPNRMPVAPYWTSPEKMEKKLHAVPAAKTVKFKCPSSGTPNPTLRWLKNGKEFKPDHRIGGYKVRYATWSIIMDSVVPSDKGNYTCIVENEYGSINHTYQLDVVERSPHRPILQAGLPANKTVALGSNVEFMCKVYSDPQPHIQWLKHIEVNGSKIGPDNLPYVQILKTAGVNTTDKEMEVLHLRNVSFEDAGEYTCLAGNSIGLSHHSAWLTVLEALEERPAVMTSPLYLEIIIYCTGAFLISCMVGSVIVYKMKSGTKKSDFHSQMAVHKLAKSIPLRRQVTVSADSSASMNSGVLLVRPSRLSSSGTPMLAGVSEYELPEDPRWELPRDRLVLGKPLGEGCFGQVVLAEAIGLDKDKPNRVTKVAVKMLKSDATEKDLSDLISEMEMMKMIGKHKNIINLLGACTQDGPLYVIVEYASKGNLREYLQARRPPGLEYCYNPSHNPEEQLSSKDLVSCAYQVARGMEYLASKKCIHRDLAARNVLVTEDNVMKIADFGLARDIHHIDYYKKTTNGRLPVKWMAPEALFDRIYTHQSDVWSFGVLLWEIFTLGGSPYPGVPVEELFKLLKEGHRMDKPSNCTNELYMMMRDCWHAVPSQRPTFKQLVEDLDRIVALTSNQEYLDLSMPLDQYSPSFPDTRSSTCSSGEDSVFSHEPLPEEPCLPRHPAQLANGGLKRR

Row | SMILES | IC50 (human FGFR-1) [nM] | IC50 (human FGFR-3) [nM] | mTOR inhibition @ 1 μM (human mTOR)
1 | COc1cc(C)cc2cc(-c3c(CNC(C)=O)c(CN4CCNC(=O)C4)n4ncnc(N)c34)sc12 [Example 67, N-({4-Amino-5-(7-methoxy-5-methyl-1-benzothiophen-2-yl)-7-[(3-oxopiperazin-1-yl)methyl]-pyrrolo[2,1-f][1,2,4]triazin-6-yl}methyl)acetamide] | 5 | 9.4 | –
2 | COc1cc(C)cc2cc(-c3c(COCC(N)=O)c(CN4CCNCC4)n4ncnc(N)c34)sc12 [Example 33, 2-{[4-Amino-5-(7-methoxy-5-methyl-1-benzothiophen-2-yl)-7-(piperazin-1-ylmethyl)pyrrolo-[2,1-f][1,2,4]triazin-6-yl]methoxy}acetamide] | 1 | 7.2 | –
3 | COc1cc(C)cc2cc(-c3c(COCC4CC4)c(CN4CCNCC4)n4ncnc(N)c34)sc12 [Example 25, 6-[(Cyclopropylmethoxy)methyl]-5-(7-methoxy-5-methyl-1-benzothiophen-2-yl)-7-(piperazin-1-ylmethyl)pyrrolo[2,1-f][1,2,4]triazin-4-amine bis(formiate)] | 0.7 | 5.2 | –
4 | CCOCc1c(-c2cc3cc(C)cc(OC)c3s2)c2c(N)ncnn2c1CNCC(N)=O [Example 9, N^2-{[4-Amino-6-(ethoxymethyl)-5-(7-methoxy-5-methyl-1-benzothiophen-2-yl)pyrrolo[2,1-f]-[1,2,4]triazin-7-yl]methyl}glycinamide dihydrochloride] | – | – | no inhib. effect detect.
5 | COc1cc(C)cc2cc(-c3c(CO)c(CN4CCNC(=O)C4)n4ncnc(N)c34)sc12 [Example 13, 4-{[4-Amino-6-(hydroxymethyl)-5-(7-methoxy-5-methyl-1-benzothiophen-2-yl)pyrrolo[2,1-f]-[1,2,4]triazin-7-yl]methyl}piperazin-2-one] | 2.5 | 10 | –
6 | COc1cc(C)cc2cc(-c3c(CN4CCNC(=O)C4)c(CN4CCN(C=O)CC4)n4ncnc(N)c34)sc12 [Example 58, 4-({4-Amino-5-(7-methoxy-5-methyl-1-benzothiophen-2-yl)-6-[(3-oxopiperazin-1-yl)methyl]-pyrrolo[2,1-f][1,2,4]triazin-7-yl}methyl)piperazine-1-carbaldehyde formiate] | 6.8 | 9.8 | –
7 | COc1cc(C)cc2cc(-c3c(CN[C@@H]4CCNC4=O)c(CN4CCN(C(C)=O)CC4)n4ncnc(N)c34)sc12 [Example 56, (3R)-3-[({7-[(4-Acetylpiperazin-1-yl)methyl]-4-amino-5-(7-methoxy-5-methyl-1-benzothiophen-2-yl)pyrrolo[2,1-f][1,2,4]triazin-6-yl}methyl)amino]pyrrolidin-2-one] | 2.4 | 2 | –
8 | COc1cc(C)cc2cc(-c3c(CNCC(C)O)c(CN4CCOCC4)n4ncnc(N)c34)sc12 (racemic) [Example 53, rac-1-({[4-Amino-5-(7-methoxy-5-methyl-1-benzothiophen-2-yl)-7-(morpholin-4-ylmethyl)pyrrolo[2,1-f][1,2,4]triazin-6-yl]methyl}amino)propan-2-ol] | 3.9 | 2.5 | –
9 | COc1cc(C)cc2cc(-c3c(CNC(C)=O)c(CN4CCN(C(C)=O)CC4)n4ncnc(N)c34)sc12 [Example 66, N-({7-[(4-Acetylpiperazin-1-yl)methyl]-4-amino-5-(7-methoxy-5-methyl-1-benzothiophen-2-yl)pyrrolo[2,1-f][1,2,4]triazin-6-yl}methyl)acetamide] | 1.6 | 3.7 | –
10 | COc1cc(C)cc2cc(-c3c(CNCC(C)(C)O)c(CN4CCN(C(C)=O)CC4)n4ncnc(N)c34)sc12 [Example 57, 1-(4-{[4-Amino-6-{[(2-hydroxy-2-methylpropyl)amino]methyl}-5-(7-methoxy-5-methyl-1-benzothiophen-2-yl)pyrrolo[2,1-f][1,2,4]triazin-7-yl]methyl}piperazin-1-yl)ethanone] | 3.2 | 1.8 | –
11 | COc1cc(C)cc2cc(-c3c(COCC(F)(F)F)c(CN4CCNCC4)n4ncnc(N)c34)sc12 [Example 29, 5-(7-Methoxy-5-methyl-1-benzothiophen-2-yl)-7-(piperazin-1-ylmethyl)-6-[(2,2,2-trifluoroethoxy)methyl]pyrrolo[2,1-f][1,2,4]triazin-4-amine formiate] | 1.6 | 2.5 | –

Further lines, with some results ahead:

Row | IC50 (human FGFR-1) [nM] | IC50 (human FGFR-3) [nM] | SMILES | mTOR inhibition @ 1 μM (human mTOR)
12 | 9.9 | 11 | CCOCc1c(-c2cc3cc(C)cc(OC)c3s2)c2c(N)ncnn2c1C(C)O (stereo not shown) [Example 90, 1-[4-Amino-6-(ethoxymethyl)-5-(7-methoxy-5-methyl-1-benzothiophen-2-yl)pyrrolo[2,1-f][1,2,4]-triazin-7-yl]ethanol] | –
13 | 27 | 42.7 | COc1cc(C)cc2cc(-c3c(CO)c(C#N)n4ncnc(N)c34)sc12 [Example 68, 4-Amino-6-(hydroxymethyl)-5-(7-methoxy-5-methyl-1-benzothiophen-2-yl)pyrrolo[2,1-f][1,2,4]-triazine-7-carbonitrile] | –
14 | 4.1 | 19.8 | COc1cc(C)cc2cc(-c3c(CO)c(C)n4ncnc(N)c34)sc12 [Example 75, [4-Amino-5-(7-methoxy-5-methyl-1-benzothiophen-2-yl)-7-methylpyrrolo[2,1-f][1,2,4]triazin-6-yl]methanol] | –
15 | 12.6 | 17.9 | COc1cc(C)cc2cc(-c3c(CO)c(Cl)n4ncnc(N)c34)sc12 [Example 79, [4-Amino-7-chloro-5-(7-methoxy-5-methyl-1-benzothiophen-2-yl)pyrrolo[2,1-f][1,2,4]triazin-6-yl]methanol] | –
16 | 39.2 | 39.8 | CCOCc1c(-c2cc3cc(C)cc(OC)c3s2)c2c(N)ncnn2c1CN1CC(F)(F)C1 [Example 102] | –
17 | 24.8 | 36.9 | CCOCc1c(-c2cc3cc(C)cc(OC)c3s2)c2c(N)ncnn2c1CN1CCS(=O)(=O)CC1 [Example 99] | –
18 | 8.8 | 5.3 | CCOCc1c(-c2cc3cc(C)cc(OC)c3s2)c2c(N)ncnn2c1C(=O)N1CNC(=O)C1 [Example 117] | –
19 | 17 | 28.7 | CCOCc1c(-c2cc3cc(C)cc(OC)c3s2)c2c(N)ncnn2c1CN1CCNC(=O)C1(C)C [Example 95] | –
20 | 3.7 | 16.5 | COc1cc(C)cc2cc(-c3c(C)c(CN4CCNCC4)n4ncnc(N)c34)sc12 [Example 84, 5-(7-Methoxy-5-methyl-1-benzothiophen-2-yl)-6-methyl-7-(piperazin-1-ylmethyl)pyrrolo[2,1-f]-[1,2,4]triazin-4-amine formiate] | –
21 | 3.4 | 16 | COc1cc(C)cc2cc(-c3c(CNCC(C)(C)O)c(Cl)n4ncnc(N)c34)sc12 [Example 82, 1-({[4-Amino-7-chloro-5-(7-methoxy-5-methyl-1-benzothiophen-2-yl)pyrrolo[2,1-f][1,2,4]triazin-6-yl]methyl}amino)-2-methylpropan-2-ol] | –
22 | 4.4 | 12.2 | COc1cc(C)cc2cc(-c3c(CO)c(C(C)(C)O)n4ncnc(N)c34)sc12 [Example 73, 2-[4-Amino-6-(hydroxymethyl)-5-(7-methoxy-5-methyl-1-benzothiophen-2-yl)pyrrolo[2,1-f]-[1,2,4]triazin-7-yl]propan-2-ol] | –
